Reference: patent US4965280A, “Antifungal carbinols” (E. I. Du Pont de Nemours and Company, priority 1989, dated 1990)

Columns and labels:
BLACK NIGHTSHAD = experiment: Test E; format: in vivo, Solanum nigrum
LAMBSQUARTER = experiment: Test E; format: in vivo, Chenopodium album
REDROOT PIGWEED [1] = experiment: Test E; format: in vivo, Amaranthus retroflexus
PERSN SPEEDWELL = experiment: Test E; format: in vivo, Veronica persica
WILD BUCKWHEAT = experiment: Test E; format: in vivo, Polygonum convolvulus
MUSTARD SPP. = experiment: Test E; format: in vivo, Brassica spp.
ANN. BLUEGRASS = experiment: Test E; format: in vivo, PO annua
G4646 CORN = experiment: Test D Corn and Sorghum Herbicide Test; format: in vivo, Zea mays
WILLMS SOYBEANS = experiment: Test D; format: in vivo, Glycine max
GREEN FOXTAIL = experiment: Test D; format: in vivo, Setaria viridis
FALL PANICUM = experiment: Test D; format: in vivo, Panicum dichotomiflorum
LARGE CRABGRASS = experiment: Test D; format: in vivo, Digitaria sanguinalis
JOHNSONGRASS = experiment: Test D; format: in vivo, Sorghum halepense
VELVETLEAF = experiment: Test D; format: in vivo, Abutilon theophrasti
Procedure: The Corn and Sorghum Herbicide Test included the following species in both the preemergence and postemergence evaluations:
Postemergence plantings were grown in Sassafras sandy loam soil. Corn and soybeans were grown in separate 25 cm diameter containers. Sorghum and the seven grass weed species were grown in two 18 cm diameter containers, 4 species per container. The seven broadleaf weed species were also grown in two 18 cm diameter containers, 4 species in one container, 3 species in the second container. One additional planting of corn in an 18 cm diameter container was made. The soil surface of this additional container of corn was covered with the absorbent, perlite, before spray treatment so that test chemicals would enter the plant only via the foliage. The plants were grown 10-21 days, dependent upon the species and then sprayed postemergence with the test chemicals dissolved in a nonpytotoxic solvent.
Preemergence plantings were grown in fertilized Tama silt loam soil. These plantings are identical to those described in the postemergence section, with the exception of the corn planting having perlite covering the soil surface. These plantings were made the day of or the day before spraying the test chemicals dissolved in a nonphytotoxic solvent.
Treated plants and controls were maintained in the greenhouse for 2 to 4 weeks. Visual planting response ratings were made on a percentage scale of 0 to 100 in comparison with a control where 0=no injury, and 100=death.

REDROOT PIGWEED [2] = experiment: Test D; format: in vivo, Amaranthus retroflexus
IVY MORNINGLORY = experiment: Test D; format: in vivo, Ipomoea hederacea
JIMSONWEED = experiment: Test D; format: in vivo, Datura stramonium

Measured: plant response

C=C(c1ccccc1)C(O)(Cn1cncn1)c1ccc(F)cc1F (centres unmarked) [Example 52, 2-(2,4-Difluorophenyl)-3-phenyl-1-(1H-1,2,4-triazol-1-yl)-3-buten-2-ol]
70%: BLACK NIGHTSHAD; POSTEMERGENCE 0500 GM/HA | ANN. BLUEGRASS; POSTEMERGENCE 0500 GM/HA
90%: REDROOT PIGWEED [1]; POSTEMERGENCE 0250 GM/HA | REDROOT PIGWEED [1]; POSTEMERGENCE 0500 GM/HA | PERSN SPEEDWELL; POSTEMERGENCE 0500 GM/HA
20%: WILD BUCKWHEAT; PREEMERGENCE 0250 GM/HA | MUSTARD SPP.; POSTEMERGENCE 0250 GM/HA
50%: REDROOT PIGWEED [1]; POSTEMERGENCE 0125 GM/HA | MUSTARD SPP.; POSTEMERGENCE 0500 GM/HA | MUSTARD SPP.; PREEMERGENCE 0250 GM/HA
30%: PERSN SPEEDWELL; POSTEMERGENCE 0125 GM/HA | WILD BUCKWHEAT; POSTEMERGENCE 0500 GM/HA | ANN. BLUEGRASS; POSTEMERGENCE 0064 GM/HA
10%: BLACK NIGHTSHAD; POSTEMERGENCE 0250 GM/HA | LAMBSQUARTER; POSTEMERGENCE 0500 GM/HA
40%: PERSN SPEEDWELL; POSTEMERGENCE 0064 GM/HA | ANN. BLUEGRASS; POSTEMERGENCE 0125 GM/HA
0%: BLACK NIGHTSHAD; POSTEMERGENCE 0064 GM/HA | BLACK NIGHTSHAD; POSTEMERGENCE 0125 GM/HA | LAMBSQUARTER; POSTEMERGENCE 0064 GM/HA | LAMBSQUARTER; POSTEMERGENCE 0125 GM/HA | LAMBSQUARTER; POSTEMERGENCE 0250 GM/HA | REDROOT PIGWEED [1]; POSTEMERGENCE 0064 GM/HA | WILD BUCKWHEAT; POSTEMERGENCE 0064 GM/HA | WILD BUCKWHEAT; POSTEMERGENCE 0125 GM/HA | WILD BUCKWHEAT; POSTEMERGENCE 0250 GM/HA | MUSTARD SPP.; POSTEMERGENCE 0064 GM/HA | MUSTARD SPP.; POSTEMERGENCE 0125 GM/HA
60%: PERSN SPEEDWELL; POSTEMERGENCE 0250 GM/HA | ANN. BLUEGRASS; POSTEMERGENCE 0250 GM/HA
100%: BLACK NIGHTSHAD; PREEMERGENCE 0250 GM/HA | LAMBSQUARTER; PREEMERGENCE 0250 GM/HA | REDROOT PIGWEED [1]; PREEMERGENCE 0250 GM/HA | PERSN SPEEDWELL; PREEMERGENCE 0250 GM/HA | ANN. BLUEGRASS; PREEMERGENCE 0250 GM/HA

C=C(c1ccccc1)C(O)(Cn1cncn1)c1ccc(Cl)cc1 (centres unmarked) [Example 51, 2-(4-Chlorophenyl)-3-phenyl-1-(1H-1,2,4-triazol-1-yl)-3-buten-2-ol]
40%: BLACK NIGHTSHAD; POSTEMERGENCE 0250 GM/HA | LAMBSQUARTER; POSTEMERGENCE 0500 GM/HA | PERSN SPEEDWELL; POSTEMERGENCE 0500 GM/HA
30%: REDROOT PIGWEED [1]; POSTEMERGENCE 0064 GM/HA | MUSTARD SPP.; POSTEMERGENCE 0125 GM/HA | MUSTARD SPP.; POSTEMERGENCE 0250 GM/HA | MUSTARD SPP.; POSTEMERGENCE 0500 GM/HA
20%: LAMBSQUARTER; POSTEMERGENCE 0250 GM/HA | PERSN SPEEDWELL; POSTEMERGENCE 0250 GM/HA | PERSN SPEEDWELL; PREEMERGENCE 0500 GM/HA | ANN. BLUEGRASS; POSTEMERGENCE 0250 GM/HA | ANN. BLUEGRASS; PREEMERGENCE 0500 GM/HA
50%: REDROOT PIGWEED [1]; POSTEMERGENCE 0125 GM/HA | ANN. BLUEGRASS; POSTEMERGENCE 0500 GM/HA
70%: REDROOT PIGWEED [1]; PREEMERGENCE 0500 GM/HA
90%: REDROOT PIGWEED [1]; POSTEMERGENCE 0500 GM/HA
0%: BLACK NIGHTSHAD; POSTEMERGENCE 0064 GM/HA | BLACK NIGHTSHAD; POSTEMERGENCE 0125 GM/HA | LAMBSQUARTER; POSTEMERGENCE 0064 GM/HA | LAMBSQUARTER; POSTEMERGENCE 0125 GM/HA | PERSN SPEEDWELL; POSTEMERGENCE 0064 GM/HA | PERSN SPEEDWELL; POSTEMERGENCE 0125 GM/HA | WILD BUCKWHEAT; POSTEMERGENCE 0064 GM/HA | WILD BUCKWHEAT; POSTEMERGENCE 0125 GM/HA | WILD BUCKWHEAT; POSTEMERGENCE 0250 GM/HA | WILD BUCKWHEAT; POSTEMERGENCE 0500 GM/HA | WILD BUCKWHEAT; PREEMERGENCE 0500 GM/HA | MUSTARD SPP.; POSTEMERGENCE 0064 GM/HA | MUSTARD SPP.; PREEMERGENCE 0500 GM/HA | ANN. BLUEGRASS; POSTEMERGENCE 0064 GM/HA | ANN. BLUEGRASS; POSTEMERGENCE 0125 GM/HA
60%: BLACK NIGHTSHAD; POSTEMERGENCE 0500 GM/HA | REDROOT PIGWEED [1]; POSTEMERGENCE 0250 GM/HA
100%: BLACK NIGHTSHAD; PREEMERGENCE 0500 GM/HA | LAMBSQUARTER; PREEMERGENCE 0500 GM/HA

C=C(c1ccccc1Cl)C(O)(Cn1cncn1)c1ccc(F)cc1F (centres unmarked) [Example 35]
30%: WILLMS SOYBEANS; POSTEMERGENCE 0500 GM/HA | GREEN FOXTAIL; PREEMERGENCE 0064 GM/HA | LARGE CRABGRASS; POSTEMERGENCE 0250 GM/HA | LARGE CRABGRASS; POSTEMERGENCE 0500 GM/HA | JOHNSONGRASS; PREEMERGENCE 0064 GM/HA | JOHNSONGRASS; PREEMERGENCE 0125 GM/HA | REDROOT PIGWEED [2]; POSTEMERGENCE 0250 GM/HA | IVY MORNINGLORY; POSTEMERGENCE 0500 GM/HA | IVY MORNINGLORY; PREEMERGENCE 0500 GM/HA | JIMSONWEED; PREEMERGENCE 0500 GM/HA
20%: IVY MORNINGLORY; POSTEMERGENCE 0250 GM/HA | JIMSONWEED; POSTEMERGENCE 0250 GM/HA | JIMSONWEED; POSTEMERGENCE 0500 GM/HA
100%: GREEN FOXTAIL; PREEMERGENCE 0500 GM/HA | FALL PANICUM; PREEMERGENCE 0500 GM/HA | LARGE CRABGRASS; PREEMERGENCE 0500 GM/HA | JOHNSONGRASS; PREEMERGENCE 0250 GM/HA | JOHNSONGRASS; PREEMERGENCE 0500 GM/HA | VELVETLEAF; PREEMERGENCE 0250 GM/HA | VELVETLEAF; PREEMERGENCE 0500 GM/HA
95%: LARGE CRABGRASS; PREEMERGENCE 0250 GM/HA
70%: GREEN FOXTAIL; PREEMERGENCE 0125 GM/HA | LARGE CRABGRASS; PREEMERGENCE 0125 GM/HA | VELVETLEAF; PREEMERGENCE 0125 GM/HA | REDROOT PIGWEED [2]; POSTEMERGENCE 0500 GM/HA
60%: VELVETLEAF; POSTEMERGENCE 0250 GM/HA | VELVETLEAF; PREEMERGENCE 0064 GM/HA
98%: REDROOT PIGWEED [2]; PREEMERGENCE 0500 GM/HA
90%: VELVETLEAF; POSTEMERGENCE 0500 GM/HA
40%: GREEN FOXTAIL; POSTEMERGENCE 0500 GM/HA
10%: WILLMS SOYBEANS; POSTEMERGENCE 0250 GM/HA
80%: GREEN FOXTAIL; PREEMERGENCE 0250 GM/HA | FALL PANICUM; PREEMERGENCE 0250 GM/HA | JIMSONWEED; PREEMERGENCE 0250 GM/HA
50%: FALL PANICUM; PREEMERGENCE 0125 GM/HA | LARGE CRABGRASS; PREEMERGENCE 0064 GM/HA | JOHNSONGRASS; POSTEMERGENCE 0500 GM/HA | REDROOT PIGWEED [2]; PREEMERGENCE 0250 GM/HA
0%: G4646 CORN; POSTEMERGENCE 0250 GM/HA | G4646 CORN; POSTEMERGENCE 0500 GM/HA | G4646 CORN; PREEMERGENCE 0064 GM/HA | G4646 CORN; PREEMERGENCE 0125 GM/HA | G4646 CORN; PREEMERGENCE 0250 GM/HA | G4646 CORN; PREEMERGENCE 0500 GM/HA | WILLMS SOYBEANS; PREEMERGENCE 0064 GM/HA | WILLMS SOYBEANS; PREEMERGENCE 0125 GM/HA | WILLMS SOYBEANS; PREEMERGENCE 0250 GM/HA | WILLMS SOYBEANS; PREEMERGENCE 0500 GM/HA | GREEN FOXTAIL; POSTEMERGENCE 0250 GM/HA | FALL PANICUM; PREEMERGENCE 0064 GM/HA | JOHNSONGRASS; POSTEMERGENCE 0250 GM/HA | REDROOT PIGWEED [2]; PREEMERGENCE 0064 GM/HA | REDROOT PIGWEED [2]; PREEMERGENCE 0125 GM/HA | IVY MORNINGLORY; PREEMERGENCE 0064 GM/HA | IVY MORNINGLORY; PREEMERGENCE 0125 GM/HA | IVY MORNINGLORY; PREEMERGENCE 0250 GM/HA | JIMSONWEED; PREEMERGENCE 0064 GM/HA | JIMSONWEED; PREEMERGENCE 0125 GM/HA
